Laboratory results reported in article PMC5372986, “Diminished Antimicrobial Peptide and Antifungal Antibiotic Activities against Candida albicans in Denture Adhesive” (Antibiotics, 2017).
Bridge positions count the residues as written; N and C are the ends. Ends that are not written are not given here. Peptide text beside a SMILES is read from it.

Experiments:
[1] = system: C. albicans ATCC 64124; assay: microbe, parasite or virus in culture; conditions: C. albicans ATCC 64124; for Activity in gels with 1.0% denture adhesive compared with gels without: result in words, Tukey HSD, 0.05 level
Description: (§1) C. albicans strains ATCC 64124 and HMV4C were used and cultivated as previously described. Their identities were verified (State Hygienic Laboratory, University of Iowa Research Park, Coralville, IA, USA). These cultures were adjusted to contain 1.2–3.7 × 10^6 CFU/mL in Roswell Park Memorial Institute (RPMI) 1640 medium.
(§2) The denture adhesive used was a standard, over-the-counter gel containing poly sodium-calcium mixed partial salt, petrolatum, cellulose gum, and mineral oil and was prepared as previously described. Denture adhesive was too viscous to use directly and was diluted to 1.0% for incorporation into the radial diffusion assay.
(§3) Each agent was reconstituted in distilled water with 0.01% acetic acid for resuspension to keep the agent in solution. Two-fold dilutions were prepared.
(§4) The radial diffusion assays were performed as described with the following unique modifications. Underlay agarose gels were prepared with and without 1.0% denture adhesive in square petri dishes (Electron Microscopy Sciences, Hatfield, PA, USA). Plates without 1.0% adhesive contained 12.5 mL of 10.0 mM sodium phosphate buffer adjusted to pH 7.4, 12.5 mL of 2.0% agarose (Agarose LE, Roche Diagnostics Corporation, Indianapolis, IN, USA) in 10.0 mM sodium phosphate adjusted to pH 7.4, and 1.0 mL of C. albicans culture per plate. Plates with 1.0% adhesive contained 12.5 mL of 2.0% dental adhesive in 10.0 mM sodium phosphate adjusted to pH 7.4, 12.5 mL 2.0% agarose (Agarose LE, Roche Diagnostics Corporation, Indianapolis, IN, USA) in 10.0 mM sodium phosphate adjusted to pH 7.4, and 1.0 mL of C. albicans culture. Wells of 2.0 mm in diameter were created and filled with 5.0 µL of AMP or antifungal antibiotic dilution (n = three replications per test). A blank of 0.01% acetic acid in distilled water was also included. The plates were incubated at 37 °C for 3 h. After incubation, 10.0 mL of overlay containing 1.0% agarose in 10.0 mM phosphate buffer with 6.0% RPMI 1640, was added to each plate. The plates were incubated at 37 °C overnight. At 24 h, antimicrobial activity was determined by measuring the zone of clearance around the center of each well and extrapolating MIC as described.
(§5) When MICs fell outside the range of the assay, we considered the MIC to be equal to the highest concentration used in the assay. […] One-way fixed-effects ANOVA models were fit to the µM MIC values. Pairwise group comparisons were conducted using the method of Tukey’s Honest Significant Differences (HSD). A 0.05 level was used to determine statistically significant differences. All analyses were conducted using JMP (Version 10.0, SAS, Cary, NC, USA).

[2] = system: C. albicans HMV4C; assay: microbe, parasite or virus in culture; conditions: C. albicans HMV4C; for Activity in gels with 1.0% denture adhesive compared with gels without: result in words, Tukey HSD, 0.05 level
Description: as §1, §2, §3, §4, §5

[3] = system: Candida albicans; conditions: broth microdilution, p < 0.05; cited from earlier work
Source text: Candida species infections can cause complications for individuals with dentures, such as denture stomatitis.

[4] = in both gels with or without 1.0% denture adhesive
[5] = No Adhesive, radial diffusion, mean (standard error, n = 3)
[6] = Adhesive (1.0% denture adhesive in gel), radial diffusion, mean (standard error, n = 3)
[7] = Adhesive (1.0% denture adhesive in gel), radial diffusion, pH 7.4, 37 °C, read at 24 h, mean (standard error, n = 3)

| Compound | Minimal inhibitory concentration (MIC) [1, 4] [µM] | Minimal inhibitory concentration (MIC) [2, 5] | Activity in gels with 1.0% denture adhesive compared with gels without ([2]; radial diffusion) | Loss of antimicrobial activity in 1.0% denture adhesive [3] | Activity in gels with 1.0% denture adhesive compared with gels without ([1]; radial diffusion) | other results |
| --- | --- | --- | --- | --- | --- | --- |
| CC[C@H](C)[C@@H]1NC(=O)[C@H](CCCCN)NC(=O)[C@H]([C@@H](C)O)NC(=O)[C@H](Cc2ccccc2)NC(=O)[C@H]([C@@H](C)CC)NC(=O)[C@@H]2CCCN2C(=O)[C@@H]2CSSC[C@@H](C(=O)N[C@@H](CCCCN)C(=O)O)NC(=O)[C@@H]3CSSC[C@H](NC(=O)[C@H](CC(N)=O)NC(=O)[C@H](Cc4ccc(O)cc4)NC(=O)[C@H](Cc4c[nH]cn4)NC(=O)[C@@H](N)CC(=O)O)C(=O)N[C@@H](C(C)C)C(=O)N[C@@H](CO)C(=O)N[C@@H](CO)C(=O)NCC(=O)NCC(=O)N[C@@H](CCC(N)=O)C(=O)N[C@@H](CSSC[C@H](NC(=O)[C@H]([C@@H](C)O)NC(=O)CNC(=O)[C@H](CCC(N)=O)NC1=O)C(=O)N[C@@H](Cc1ccc(O)cc1)C(=O)N[C@@H](CCCNC(=N)N)C(=O)NCC(=O)N[C@@H](CCCCN)C(=O)N[C@@H](C)C(=O)N[C@@H](CCCCN)C(=O)N3)C(=O)N[C@@H](CC(C)C)C(=O)N[C@@H](Cc1ccc(O)cc1)C(=O)N[C@@H](CO)C(=O)N[C@@H](C)C(=O)N2 [HBD-1] (H-DHYNCVSSGGQCLYSACPIFTKIQGTCYRGKAKCCK-OH; disulfide 5-34, 12-27, 17-35 (inferred); N-terminus and C-terminus assumed) | > 254.1 | >254.1 (0.0) µM | – | – | – | Minimal inhibitory concentration (MIC) [2, 4]: > 254.1 µM |
| C[C@H](NC(=O)[C@H](Cc1c[nH]cn1)NC(=O)[C@H](CO)NC(=O)[C@@H](N)CC(=O)O)C(=O)N[C@@H](CCCCN)C(=O)N[C@@H](CCCNC(=N)N)C(=O)N[C@@H](Cc1c[nH]cn1)C(=O)N[C@@H](Cc1c[nH]cn1)C(=O)NCC(=O)N[C@@H](Cc1ccc(O)cc1)C(=O)N[C@@H](CCCCN)C(=O)N[C@@H](CCCNC(=N)N)C(=O)N[C@@H](CCCCN)C(=O)N[C@@H](Cc1ccccc1)C(=O)N[C@@H](Cc1c[nH]cn1)C(=O)N[C@@H](CCC(=O)O)C(=O)N[C@@H](CCCCN)C(=O)N[C@@H](Cc1c[nH]cn1)C(=O)N[C@@H](Cc1c[nH]cn1)C(=O)N[C@@H](CO)C(=O)N[C@@H](Cc1c[nH]cn1)C(=O)N[C@@H](CCCNC(=N)N)C(=O)NCC(=O)N[C@@H](Cc1ccc(O)cc1)C(=O)O [Histatin 5] | > 329.0 | – | diminished activity | – | – | – |
| CC[C@H](C)[C@H](NC(=O)[C@H](CCCCN)NC(=O)[C@H](CCC(=O)O)NC(=O)[C@H](CCCCN)NC(=O)[C@H](CO)NC(=O)[C@H](CCCCN)NC(=O)[C@H](CCCNC(=N)N)NC(=O)[C@H](Cc1ccccc1)NC(=O)[C@H](Cc1ccccc1)NC(=O)[C@H](CC(=O)O)NC(=O)CNC(=O)[C@H](CC(C)C)NC(=O)[C@@H](N)CC(C)C)C(=O)NCC(=O)N[C@@H](CCCCN)C(=O)N[C@@H](CCC(=O)O)C(=O)N[C@@H](Cc1ccccc1)C(=O)N[C@@H](CCCCN)C(=O)N[C@@H](CCCNC(=N)N)C(=O)N[C@H](C(=O)N[C@H](C(=O)N[C@@H](CCC(N)=O)C(=O)N[C@@H](CCCNC(=N)N)C(=O)N[C@H](C(=O)N[C@@H](CCCCN)C(=O)N[C@@H](CC(=O)O)C(=O)N[C@@H](Cc1ccccc1)C(=O)N[C@@H](CC(C)C)C(=O)N[C@@H](CCCNC(=N)N)C(=O)N[C@@H](CC(N)=O)C(=O)N[C@@H](CC(C)C)C(=O)N[C@H](C(=O)N1CCC[C@H]1C(=O)N[C@@H](CCCNC(=N)N)C(=O)N[C@H](C(=O)N[C@@H](CCC(=O)O)C(=O)N[C@@H](CO)C(=O)O)[C@@H](C)O)C(C)C)[C@@H](C)CC)C(C)C)[C@@H](C)CC [LL37] | > 222.4 | 30.4 (1.0) µM | diminished activity | – | – | Minimal inhibitory concentration (MIC) [1, 6]: >222.4 (0.0) µM; Minimal inhibitory concentration (MIC) [1, 5]: >222.4 (0.0) µM; Minimal inhibitory concentration (MIC) [2, 6]: >222.4 (0.0) µM |
| CCCCCCCCCCCCCCC[C@@H](O)[C@@H](N)CO [dihydrosphingosine] | – | – | – | lost antimicrobial activity | – | – |
| CCCCCCCCCCCCCC[C@@H](O)[C@@H](O)[C@@H](N)CO [phytosphingosine] | – | – | – | lost antimicrobial activity | – | – |
| CCCCCCCCCCCCC/C=C/[C@@H](O)[C@@H](N)CO [sphingosine] | – | – | – | lost antimicrobial activity | – | – |
| GIGDPVTCLKSGAICHPVFCPRRYKQIGTCGLPGTKCCKKP (disulfide 8-37, 15-30, 20-38 (inferred)) [HBD-2] | – | – | diminished activity | – | diminished activity | – |
| GIINTLQKYYCRVRGGRCAVLSCLPKEEQIGKCSTRGRKCCRRKK (disulfide 11-40, 18-33, 23-41 (inferred)) [HBD-3] | – | – | diminished activity | – | diminished activity | – |
| IP-10: recombinant human CXCL10 (Peprotech) | – | 2.2 (0.0) µM | diminished activity | – | diminished activity | Minimal inhibitory concentration (MIC) [1, 7]: >1000.0 (0.0) µg/mL; Minimal inhibitory concentration (MIC) [1, 6]: >115.7 (0.0) µM; Minimal inhibitory concentration (MIC) ([1]; No Adhesive, radial diffusion, pH 7.4, 37 °C, read at 24 h, mean (standard error, n = 3)): 103.6 (3.2) µg/mL; Minimal inhibitory concentration (MIC) [1, 5]: 12.0 (0.4) µM; Minimal inhibitory concentration (MIC) [2, 7]: >200.0 (0.0) µg/mL; Minimal inhibitory concentration (MIC) [2, 6]: >23.1 (0.0) µM; Minimal inhibitory concentration (MIC) ([2]; No Adhesive, radial diffusion, agarose in 10.0 mM sodium phosphate pH 7.4, 37 °C, read at 24 h, mean (standard error, n = 3)): 18.6 (0.3) µg/mL |
